Data on 2 compounds can be found in patent US20190076482A1, “ENHANCED ORGANOID FORMATION AND INTESTINAL STEM CELL RENEWAL” (THE JOHNS HOPKINS UNIVERSITY, priority 2016, published 2019).

One experiment concerns WT organoids. Kind of experiment: Wnt inhibitor treatment of WT control organoids. The conditions noted are these: for bud formation: controls. It is filed as cell-based, mouse. The source says: (§1) To better define the role of Hmga1 in regulating Wnt signaling, we cultured Hmga1 organoids in the absence of the Wnt receptor agonist, R-spondin 1 (R-spo1), which is essential for organoid formation in this culture system. R-spo1 is secreted by intestinal stromal cells and binds to the Lgr5 receptor to activate Wnt signaling. The inventors discovered a dramatic difference in the response of Hmga1 organoids to the absence of R-spo1 as compared to the WT controls: Hmga1 organoids continued to survive and proliferate after 2 weeks, while the WT organoids lost their 3D structural organization and ultimately died by day 5 (FIG. 9). […] To further test the link between Hmga1 and Wnt, we treated organoids with the Wnt inhibitors, C59 and IWP-2, both of which block Wnt-mediated transcription and cell proliferation by inhibiting porcupine (PORCN), a protein required for Wnt palmitoylation, secretion, and biological activity. […] The blunted response of Hmga1 organoids to Wnt inhibition further highlights the ability of Hmga1 to amplify Wnt signaling to maintain and support ISCs.
Organoid culture and replating assay. Mouse organoids were established and maintained from isolated crypts of the proximal small intestine as described previously^1-7. The basic culture medium (advanced Dulbecco's modified Eagle's medium/F12 supplemented with penicillin/streptomycin, 10 mmol/l HEPES, 13 Glutamax, 13 B27 [all from Life Technologies], and 1 mmol/l N-acetylcysteine [Sigma]) was supplemented with 50 ng/ml murine recombinant EGF (Peprotech), R-spondin 1 (1 μg/ml), and Noggin (10 ng/ml). Wnt inhibitors C59 and IWP-2 are commercially available (Abcam). Conditioned media was produced using HEK293T cells stably transfected with HA-mouse Rspo1-Fc (a gift from Calvin Kuo, Stanford University). Advanced DMEM/F12 supplemented with penicillin/streptomycin, 10 mmol/1 HEPES, and 13 Glutamax was conditioned for 1 week. For the replating assay, an equal number of organoids from each model were mechanically dispersed with a 10 mL pipet after 3-5 days in culture and replated using the conditions described above.

Another experiment concerns Hmga1 organoids. Kind of experiment: Wnt inhibitor treatment of Hmga1 organoids. It is filed as cell-based, mouse.
From the text: as §1
Organoid culture and replating assay. Mouse organoids were established and maintained from isolated crypts of the proximal small intestine as described previously^1-7. […]

Regarding `Cc1cc(-c2ccc(CC(=O)Nc3ccc(-c4cccnc4)cc3)cc2)ccn1` [C59], the organoid proliferation entry with WT organoids (WT controls, exposure to as little as 0.5 μM (FIG. 4f)) is given as “failed to proliferate”. In the experiment on Hmga1 organoids (up to 2μM of C59 (FIG. 4f)), the organoid survival result is listed as “able to survive”.
For the compound `Cc1ccc2nc(NC(=O)CSc3nc4c(c(=O)n3-c3ccccc3)SCC4)sc2c1` [IWP-2], the bud formation result in the experiment with WT organoids (0.5 μM (FIG. 4f)) was “few buds”; in the experiment with WT organoids (1 μM IWP-2 (FIG. 4f)), “no buds”. Also, the “organoid survival and bud formation” value in the experiment with Hmga1 organoids (1 μM of IWP-2 (FIG. 4f)) was “survive and form buds”.
